Laboratory results as given in the NIST ThermoML archive (doi:10.1016/j.fluid.2019.04.036).
± gives the expanded uncertainty stated by the source.

Conditions: Liquid, Transpiration method

## CCCCN(C=O)CCCC [N,N-dibutylformamide]
293.1 K
  vapor or sublimation pressure: 0.0026 ± 0.00018 kPa
295.8 K
  vapor or sublimation pressure: 0.00329 ± 0.00022 kPa
296.9 K
  vapor or sublimation pressure: 0.00365 ± 0.00025 kPa
298 K
  vapor or sublimation pressure: 0.004 ± 0.00027 kPa
298.7 K
  vapor or sublimation pressure: 0.00421 ± 0.00028 kPa
298.9 K
  vapor or sublimation pressure: 0.00438 ± 0.00028 kPa
299.3 K
  vapor or sublimation pressure: 0.00469 ± 0.0003 kPa
301.4 K
  vapor or sublimation pressure: 0.00534 ± 0.00038 kPa
304.5 K
  vapor or sublimation pressure: 0.00695 ± 0.00048 kPa
304.6 K
  vapor or sublimation pressure: 0.00705 ± 0.00049 kPa
304.8 K
  vapor or sublimation pressure: 0.00709 ± 0.00049 kPa
308.3 K
  vapor or sublimation pressure: 0.0097 ± 0.00066 kPa
308.7 K
  vapor or sublimation pressure: 0.01006 ± 0.00069 kPa
309.9 K
  vapor or sublimation pressure: 0.01103 ± 0.00074 kPa
310.7 K
  vapor or sublimation pressure: 0.01193 ± 0.00079 kPa
311.6 K
  vapor or sublimation pressure: 0.01265 ± 0.00084 kPa
312.5 K
  vapor or sublimation pressure: 0.01383 ± 0.00092 kPa
313.3 K
  vapor or sublimation pressure: 0.01469 ± 0.00097 kPa
314.7 K
  vapor or sublimation pressure: 0.01666 ± 0.0011 kPa
315.1 K
  vapor or sublimation pressure: 0.01677 ± 0.0011 kPa
315.3 K
  vapor or sublimation pressure: 0.01776 ± 0.0012 kPa
318.2 K
  vapor or sublimation pressure: 0.0217 ± 0.0014 kPa
318.4 K
  vapor or sublimation pressure: 0.02183 ± 0.0014 kPa
320.5 K
  vapor or sublimation pressure: 0.0256 ± 0.0016 kPa
321.1 K
  vapor or sublimation pressure: 0.02589 ± 0.0017 kPa
322.6 K
  vapor or sublimation pressure: 0.03097 ± 0.002 kPa
322.8 K
  vapor or sublimation pressure: 0.03141 ± 0.002 kPa
323.8 K
  vapor or sublimation pressure: 0.03251 ± 0.0021 kPa
325.8 K
  vapor or sublimation pressure: 0.03894 ± 0.0025 kPa
326.8 K
  vapor or sublimation pressure: 0.04037 ± 0.0026 kPa
329.4 K
  vapor or sublimation pressure: 0.04901 ± 0.0031 kPa
329.6 K
  vapor or sublimation pressure: 0.04927 ± 0.0031 kPa
334.7 K
  vapor or sublimation pressure: 0.0724 ± 0.0046 kPa

## CCN(C=O)CC [N,N-diethylformamide]
288.8 K
  vapor or sublimation pressure: 0.0751 ± 0.0048 kPa
292.2 K
  vapor or sublimation pressure: 0.0961 ± 0.006 kPa
295.1 K
  vapor or sublimation pressure: 0.1173 ± 0.0075 kPa
300.5 K
  vapor or sublimation pressure: 0.1677 ± 0.011 kPa
300.7 K
  vapor or sublimation pressure: 0.169 ± 0.011 kPa
303.7 K
  vapor or sublimation pressure: 0.211 ± 0.013 kPa
305.7 K
  vapor or sublimation pressure: 0.2482 ± 0.015 kPa
310.7 K
  vapor or sublimation pressure: 0.3265 ± 0.021 kPa
315.7 K
  vapor or sublimation pressure: 0.4646 ± 0.029 kPa
320.8 K
  vapor or sublimation pressure: 0.6274 ± 0.039 kPa
323.2 K
  vapor or sublimation pressure: 0.7094 ± 0.044 kPa
325.8 K
  vapor or sublimation pressure: 0.8534 ± 0.053 kPa
330.9 K
  vapor or sublimation pressure: 1.093 ± 0.068 kPa
335.9 K
  vapor or sublimation pressure: 1.479 ± 0.092 kPa
338.5 K
  vapor or sublimation pressure: 1.733 ± 0.11 kPa
340.9 K
  vapor or sublimation pressure: 1.948 ± 0.12 kPa
346 K
  vapor or sublimation pressure: 2.46 ± 0.15 kPa
348.5 K
  vapor or sublimation pressure: 2.893 ± 0.18 kPa
350.9 K
  vapor or sublimation pressure: 3.209 ± 0.2 kPa
356.1 K
  vapor or sublimation pressure: 4.164 ± 0.26 kPa

## CCCN(C=O)CCC [N,N-dipropylformamide]
278.5 K
  vapor or sublimation pressure: 0.00516 ± 0.00037 kPa
282.4 K
  vapor or sublimation pressure: 0.00741 ± 0.00051 kPa
283.4 K
  vapor or sublimation pressure: 0.00814 ± 0.00056 kPa
285.1 K
  vapor or sublimation pressure: 0.00949 ± 0.00064 kPa
288.2 K
  vapor or sublimation pressure: 0.01246 ± 0.00084 kPa
290.2 K
  vapor or sublimation pressure: 0.01527 ± 0.001 kPa
292.2 K
  vapor or sublimation pressure: 0.01766 ± 0.0012 kPa
294.8 K
  vapor or sublimation pressure: 0.02239 ± 0.0014 kPa
295.8 K
  vapor or sublimation pressure: 0.02392 ± 0.0016 kPa
296.5 K
  vapor or sublimation pressure: 0.02608 ± 0.0017 kPa
298.4 K
  vapor or sublimation pressure: 0.03075 ± 0.0019 kPa
299.4 K
  vapor or sublimation pressure: 0.03131 ± 0.002 kPa
301.2 K
  vapor or sublimation pressure: 0.03699 ± 0.0024 kPa
302.9 K
  vapor or sublimation pressure: 0.04152 ± 0.0027 kPa
305.1 K
  vapor or sublimation pressure: 0.05251 ± 0.0034 kPa
306.1 K
  vapor or sublimation pressure: 0.05391 ± 0.0034 kPa
307.2 K
  vapor or sublimation pressure: 0.05892 ± 0.0037 kPa
308.2 K
  vapor or sublimation pressure: 0.06219 ± 0.004 kPa
310.4 K
  vapor or sublimation pressure: 0.07592 ± 0.0048 kPa
311.3 K
  vapor or sublimation pressure: 0.08121 ± 0.0052 kPa
313.4 K
  vapor or sublimation pressure: 0.09479 ± 0.006 kPa
315.4 K
  vapor or sublimation pressure: 0.113 ± 0.0071 kPa
316.4 K
  vapor or sublimation pressure: 0.1145 ± 0.0072 kPa
318.5 K
  vapor or sublimation pressure: 0.1321 ± 0.0084 kPa
319.4 K
  vapor or sublimation pressure: 0.1476 ± 0.0097 kPa

## CCCCNC=O [N-butylformamide]
297.1 K
  vapor or sublimation pressure: 0.00293 ± 0.0002 kPa
298.2 K
  vapor or sublimation pressure: 0.00321 ± 0.00022 kPa
299.3 K
  vapor or sublimation pressure: 0.00349 ± 0.00023 kPa
301.2 K
  vapor or sublimation pressure: 0.00422 ± 0.00028 kPa
304.2 K
  vapor or sublimation pressure: 0.0056 ± 0.00041 kPa
307.2 K
  vapor or sublimation pressure: 0.00731 ± 0.00051 kPa
310.2 K
  vapor or sublimation pressure: 0.00912 ± 0.00062 kPa
314.1 K
  vapor or sublimation pressure: 0.01307 ± 0.00086 kPa
316.2 K
  vapor or sublimation pressure: 0.01498 ± 0.00099 kPa
317.8 K
  vapor or sublimation pressure: 0.01763 ± 0.0011 kPa
318.2 K
  vapor or sublimation pressure: 0.01802 ± 0.0012 kPa
320.2 K
  vapor or sublimation pressure: 0.02208 ± 0.0014 kPa
323.1 K
  vapor or sublimation pressure: 0.02695 ± 0.0017 kPa
326.2 K
  vapor or sublimation pressure: 0.03461 ± 0.0022 kPa
329.1 K
  vapor or sublimation pressure: 0.04093 ± 0.0026 kPa
331.2 K
  vapor or sublimation pressure: 0.05017 ± 0.0032 kPa
334.2 K
  vapor or sublimation pressure: 0.06336 ± 0.004 kPa
337.1 K
  vapor or sublimation pressure: 0.07893 ± 0.005 kPa
340.2 K
  vapor or sublimation pressure: 0.09365 ± 0.0059 kPa
343.2 K
  vapor or sublimation pressure: 0.1151 ± 0.0073 kPa
346.2 K
  vapor or sublimation pressure: 0.1403 ± 0.0088 kPa
349.1 K
  vapor or sublimation pressure: 0.1719 ± 0.011 kPa
352.2 K
  vapor or sublimation pressure: 0.208 ± 0.013 kPa

## CN(C)C=O [dimethylformamide]
276.3 K
  vapor or sublimation pressure: 0.1229 ± 0.0078 kPa
279.3 K
  vapor or sublimation pressure: 0.1498 ± 0.0095 kPa
281.2 K
  vapor or sublimation pressure: 0.1752 ± 0.011 kPa
283.1 K
  vapor or sublimation pressure: 0.1994 ± 0.013 kPa
285.3 K
  vapor or sublimation pressure: 0.2375 ± 0.015 kPa
289.3 K
  vapor or sublimation pressure: 0.314 ± 0.02 kPa
291.3 K
  vapor or sublimation pressure: 0.3569 ± 0.022 kPa
293.3 K
  vapor or sublimation pressure: 0.4045 ± 0.025 kPa
296.3 K
  vapor or sublimation pressure: 0.4849 ± 0.03 kPa
299.5 K
  vapor or sublimation pressure: 0.5941 ± 0.037 kPa
302.2 K
  vapor or sublimation pressure: 0.6949 ± 0.043 kPa
305.2 K
  vapor or sublimation pressure: 0.847 ± 0.053 kPa
